Measured values from US10213429B2, “Imidazo-pyrazinyl derivatives useful as soluble guanylate cyclase activators” (Merck Sharp & Dohme Corp., priority 2015, dated 2019).

Target: T1, sGC α1/β1 heterodimer (Homo sapiens, UniProt Q02108+Q02153)
T1 construct: expressed in transfected cells; host or cells: CHO-K1 (clone #7, CHO-K1/sGC)
T1 sequence (Q02108 1-690): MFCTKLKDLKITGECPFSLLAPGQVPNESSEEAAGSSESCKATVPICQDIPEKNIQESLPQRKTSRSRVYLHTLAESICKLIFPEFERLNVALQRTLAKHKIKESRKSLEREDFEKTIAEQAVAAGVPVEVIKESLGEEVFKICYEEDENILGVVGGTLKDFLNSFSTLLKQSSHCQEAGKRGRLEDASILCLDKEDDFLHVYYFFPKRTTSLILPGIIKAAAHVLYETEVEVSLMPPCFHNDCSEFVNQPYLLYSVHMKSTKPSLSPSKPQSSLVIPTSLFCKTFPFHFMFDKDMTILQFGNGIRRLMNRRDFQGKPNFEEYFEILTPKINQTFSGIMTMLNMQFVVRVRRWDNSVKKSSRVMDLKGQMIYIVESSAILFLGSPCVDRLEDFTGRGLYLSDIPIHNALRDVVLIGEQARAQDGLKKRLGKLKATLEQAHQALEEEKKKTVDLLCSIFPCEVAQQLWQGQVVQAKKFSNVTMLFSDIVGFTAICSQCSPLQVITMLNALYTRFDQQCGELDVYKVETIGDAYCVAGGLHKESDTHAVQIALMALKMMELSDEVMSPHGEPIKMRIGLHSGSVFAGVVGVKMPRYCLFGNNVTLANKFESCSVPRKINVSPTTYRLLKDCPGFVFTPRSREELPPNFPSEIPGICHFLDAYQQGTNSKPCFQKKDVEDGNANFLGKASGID
T1 sequence (Q02153 1-619): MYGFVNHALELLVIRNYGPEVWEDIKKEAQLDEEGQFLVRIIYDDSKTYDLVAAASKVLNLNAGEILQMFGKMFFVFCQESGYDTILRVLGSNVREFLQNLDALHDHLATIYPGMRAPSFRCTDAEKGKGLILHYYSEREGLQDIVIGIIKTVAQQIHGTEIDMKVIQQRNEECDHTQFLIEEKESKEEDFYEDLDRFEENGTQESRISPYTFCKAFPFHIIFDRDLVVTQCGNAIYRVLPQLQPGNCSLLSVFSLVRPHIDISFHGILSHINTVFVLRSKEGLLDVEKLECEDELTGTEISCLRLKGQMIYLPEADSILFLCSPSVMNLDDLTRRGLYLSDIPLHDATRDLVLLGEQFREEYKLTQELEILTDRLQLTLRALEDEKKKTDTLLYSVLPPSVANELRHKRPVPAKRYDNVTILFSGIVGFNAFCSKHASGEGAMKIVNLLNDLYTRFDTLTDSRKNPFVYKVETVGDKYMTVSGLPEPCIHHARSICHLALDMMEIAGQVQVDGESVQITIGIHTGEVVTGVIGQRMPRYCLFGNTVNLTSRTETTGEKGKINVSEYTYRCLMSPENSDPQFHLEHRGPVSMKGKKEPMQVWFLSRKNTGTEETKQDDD
Assay: Cell-Based sGC Functional Assay (CASA Assay), cGMP by HTRF in CHO-K1/sGC cells
Conditions: for Emax: CHO-K1, percent activation relative to maximum cGMP production of Compound A (= 100%), read-out: % Act.; for EC50: cGMP production, 1 hr at 37° C., 4P fit, presence or absence of 1 μM DETA-NO not given, read-out: IP (nM) (inflection point); for % Act.: percent activation relative to maximum cGMP production of Compound A (= 100%)
Description: Biological Assay 1: Cell-Based sGC Functional Assay (CASA Assay)
sGC is a heme-containing enzyme that converts GTP to secondary messenger cGMP. Increases in cGMP levels affect several physiological processes including vasorelaxation through multiple downstream pathways. […] Heme-dependent activators (HDAs) preferentially activate sGC containing a ferrous heme group. To determine the effect of sGC activators on enzyme activity, the CASA assay was developed to monitor the generation of cGMP in a cell line that stably expresses the heterodimeric sGC protein.
A CHO-K1 cell line stably expressing the sGC α1/β1 heterodimer was generated using a standard transfection protocol. CHO-K1 cells were transfected with plasmids pIREShyghsGCα1 and pIRESneo-hsGCβ1 simultaneously using FUGENE reagent. Clones that stably express both subunits were selected with hygromycin and neomycin for ˜2 weeks. Clone #7 was chosen for the assay and was designated CHO-K1/sGC. CHO-K1/sGC cells were maintained in F-K12 medium containing 10% heat-inactivated Fetal Bovine Serum (FBS), 100 μg/mL penicillin/streptomycin, 0.5 mg/mL hygromycin and 0.25 mg/mL G418. The cells were then cryopreserved in LN2. On the day of the assay, cells were thawed and resuspended in EBSS Assay Buffer (Sigma, E3024) supplemented with 5 mM MgCl2, 10 mM HEPES (4-(2-hydroxyethyl)piperazine-1-ethanesulfonic acid) and 0.05% BSA (bovine serum albumin) (EAB) and cell density was then adjusted to 4×10^5/mL with EAB. IBMX (3-isobutyl-1-methylxanthin, 0.5 mM) was added to inhibit degradation of cGMP. Compounds were diluted from DMSO stock solutions and added to the assay at a final DMSO concentration of 2.5%. Cells were incubated with compounds in the presence and absence of 1 μM of Diethylenetriamine/nitric oxide adduct (DETA-NO; Sigma, 17018) for 1 hr at 37° C. At the end of the incubation period, the reaction was terminated and the cells were lysed with the detection reagents from Cisbio Kits. The level of intracellular cGMP was determined using an HTRF-based assay kit (CisBio, 62GM2PEC), which detects the displacement of a fluorescence labeled cGMP from its specific antibody. The cGMP produced by test compounds was directly compared to the maximum cGMP production (this value was set to equal 100% activation.) of the published sGC-HDA Compound A:
[drawing 175] (Example 1 in WO 2010/065275, published Jun. 10, 2010). The test compounds' activities were then expressed as a percentage of Compound A, the standard in every experiment. This percent activation was calculated either in the presence or absence of DETA-NO which was then plotted. IP and maximum fold induction was derived using ADA analysis software for 4P fit.
The compounds in the Examples of the instant invention had inflection points (IP) less than or equal to 10 μM and most less than or equal to about 1 μM.

SMILES	Emax	EC50	% Act.
CCCCc1nc(-c2nc(O)c3c(n2)NC(=O)C3(c2ccc(Cl)cn2)C2CC2)cn2ccnc12 (centres unmarked) [Example 25A, 2-(8-butylimidazo[1,2-a]pyrazin-6-yl)-5-(5-chloropyridin-2-yl)-5-cyclopropyl-4-hydroxy-5H-pyrrolo[2,3-d]pyrimidin-6(7H)-one]	153%	240 nM	
O=C1Nc2nc(-c3cn4ccnc4c(Cc4ccc(F)cc4)n3)ncc2C1(C(=O)NC1CC1)C1CC1 (single isomer, unassigned) [Example 68A, N,5-dicyclopropyl-2-(8-(4-fluorobenzyl)imidazo[1,2-a]pyrazin-6-yl)-6-oxo-6,7-dihydro-5H-pyrrolo[2,3-d]pyrimidine-5-carboxamide]	138%	254 nM	
O=C1Nc2nc(-c3cn4ccnc4c(Cc4ccc(F)cc4)n3)ncc2C1(C(=O)NC1CC1)C1CC1 (single isomer, unassigned) [Example 68B, N,5-dicyclopropyl-2-(8-(4-fluorobenzyl)imidazo[1,2-a]pyrazin-6-yl)-6-oxo-6,7-dihydro-5H-pyrrolo[2,3-d]pyrimidine-5-carboxamide]		83 nM	120%
CCc1nc(-c2cn3ccnc3c(CCC(F)(F)C(F)(F)F)n2)nc2c1C(C)(c1ccc(F)cc1)C(=O)N2 (centres unmarked) [Example 76A, 4-ethyl-5-(4-fluorophenyl)-5-methyl-2-(8-(3,3,4,4,4-pentafluorobutyl)imidazo [1,2-a]pyrazin-6-yl)-5H-pyrrolo[2,3-d]pyrimidin-6(7H)-one]	130%	95 nM	
CC1(C(=O)NC2CC2)C(=O)Nc2nc(-c3cn4ccnc4c(Cc4ccccc4F)n3)ncc21 (single isomer, unassigned) [Example 69B, N-cyclopropyl-2-(8-(2-fluorobenzyl)imidazo[1,2-a]pyrazin-6-yl)-5-methyl-6-oxo-6,7-dihydro-5H-pyrrolo[2,3-d]pyrimidine-5-carboxamide]		226 nM	118%
O=C1Nc2nc(-c3cn4ccnc4c(CCC(F)(F)C(F)(F)F)n3)ncc2C1(c1ccc(F)cn1)C1CC1 (centres unmarked) [Example 53A, 5-cyclopropyl-5-(5-fluoropyridin-2-yl)-2-(8-(3,3,4,4,4-pentafluorobutyl)imidazo[1,2-a]pyrazin-6-yl)-5H-pyrrolo[2,3-d]pyrimidin-6(7H)-one]	125%	220 nM	
O=C1Nc2nc(-c3cn4ccnc4c(CCCC(F)(F)F)n3)nc(O)c2C1(c1ccc(Cl)cn1)C1CC1 (centres unmarked) [Example 10A, 5-(5-chloropyridin-2-yl)-5-cyclopropyl-4-hydroxy-2-(8-(4,4,4-trifluorobutyl)imidazo[1,2-a]pyrazin-6-yl)-5H-pyrrolo[2,3-d]pyrimidin-6(7H)-one]	126%	658 nM	
O=C1Nc2nc(-c3cn4ccnc4c(Cc4ccccc4F)n3)ncc2C1(C(=O)NC1CC1)C1CC1 (single isomer, unassigned) [Example 70A, N,5-dicyclopropyl-2-(8-(2-fluorobenzyl)imidazo[1,2-a]pyrazin-6-yl)-6-oxo-6,7-dihydro-5H-pyrrolo[2,3-d]pyrimidine-5-carboxamide]		179 nM	169%

These reach a lower EC50. Values come first.

Emax	EC50	% Act.	SMILES
135%	23 nM		CC1(c2ccc(F)cn2)C(=O)Nc2nc(-c3cn4ccnc4c(CCC(F)(F)C(F)(F)F)n3)nc(C3CC3)c21 (centres unmarked) [Example 71B, 4-Cyclopropyl-5-(5-fluoropyridin-2-yl)-5-methyl-2-(8-(3,3,4,4,4-pentafluorobutyl)imidazo[1,2-a]pyrazin-6-yl)-5H-pyrrolo[2,3-d]pyrimidin-6(7H)-one]
125%	18 nM		CC1(c2ccc(F)cn2)C(=O)Nc2nc(-c3cn4ccnc4c(CCCC(F)(F)F)n3)nc(C3CC3)c21 (centres unmarked) [Example 73B, 4-cyclopropyl-5-(5-fluoropyridin-2-yl)-5-methyl-2-(8-(4,4,4-trifluorobutyl)imidazo[1,2-a]pyrazin-6-yl)-5H-pyrrolo[2,3-d]pyrimidin-6(7H)-one]
135%	10 nM		O=C1Nc2nc(-c3cn4ccnc4c(CCCC(F)(F)F)n3)ncc2C1(c1ccc(Cl)cc1F)C1CC1 (centres unmarked) [Example 46A, 5-(4-chloro-2-fluorophenyl)-5-cyclopropyl-2-(8-(4,4,4-trifluorobutyl)imidazo[1,2-a]pyrazin-6-yl)-5H-pyrrolo[2,3-d]pyrimidin-6(7H)-one]
123%	11 nM		CCCCc1nc(-c2ncc3c(n2)NC(=O)C3(c2ccc(Cl)c(F)c2)C2CC2)cn2ccnc12 (centres unmarked) [Example 47A, 2-(8-butylimidazo[1,2-a]pyrazin-6-yl)-5-(4-chloro-3-fluorophenyl)-5-cyclopropyl-5H-pyrrolo[2,3-d]pyrimidin-6(7H)-one]
88%	66 nM		O=C1Nc2nc(-c3cn4ccnc4c(CCC(F)(F)C(F)(F)F)n3)ncc2C1(c1ccc(F)cc1)C1CC1 (centres unmarked) [Example 11B, 5-cyclopropyl-5-(4-fluorophenyl)-2-(8-(3,3,4,4,4-pentafluorobutyl)imidazo[1,2-a]pyrazin-6-yl)-5H-pyrrolo[2,3-d]pyrimidin-6(7H)-one]
	38 nM	179%	CC1(C(=O)NC2CC2)C(=O)Nc2nc(-c3cn4ccnc4c(Cc4ccccc4F)n3)ncc21 (single isomer, unassigned) [Example 69A, N-cyclopropyl-2-(8-(2-fluorobenzyl)imidazo[1,2-a]pyrazin-6-yl)-5-methyl-6-oxo-6,7-dihydro-5H-pyrrolo[2,3-d]pyrimidine-5-carboxamide]
93%	5 nM		CCCCc1nc(-c2ncc3c(n2)NC(=O)C3(c2ccc(Cl)cc2F)C2CC2)cn2ccnc12 (centres unmarked) [Example 45A, 2-(8-butylimidazo[1,2-a]pyrazin-6-yl)-5-(4-chloro-2-fluorophenyl)-5-cyclopropyl-5H-pyrrolo[2,3-d]pyrimidin-6(7H)-one]
111%	45 nM		CC1(c2ccc(Cl)cn2)C(=O)Nc2nc(-c3cn4ccnc4c(Cc4ccc(F)cc4)n3)nc(O)c21 (centres unmarked) [Example 16A, 5-(5-chloropyridin-2-yl)-2-(8-(4-fluorobenzyl)imidazo[1,2-a]pyrazin-6-yl)-4-hydroxy-5-methyl-5H-pyrrolo[2,3-d]pyrimidin-6(7H)-one]
